Data set [1] relates to RANK mRNA. The experiment in a line: RANK mRNA expression in mouse proximal tibia after antisense oligonucleotide treatment and PTH infusion: dose response and delivery method (Table 12). Format: in vivo. The settings on record: then 24 h PTH. As to the method: (§1) In accordance with the present invention, ISIS 181071 was evaluated for its ability to inhibit RANK expression and PTH-induced serum calcium concentration increase following 18 days of oligonucleotide treatment.
(§2) Female Swiss-Webster mice (5-8 wks old), fed a low-calcium diet, were treated for 18 days with ISIS 181071 (SEQ ID NO: 356) at different doses and through different delivery methods. The dose of oligonucleotide was either 30 mg/kg, 20 mg/kg, 10 mg/kg, 3 mg/kg, or 0.1 mg/kg administered by daily subcutaneous injections for the first five days, followed by mini-pump infusion for the remaining 13 days, or the dose was 10 mg/kg or 30 mg/kg administered daily by subcutaneous injection for the entire 18 day period. After 18 days of treatment with oligonucleotides, the mice were infused with PTH by subcutaneously implanted mini-pumps at a dose of 1 ug/100 g/6 hr. A group of control mice received saline, calcitonin (400 ng) plus PTH (1 ug/100 g/6 hr) or PTH alone (1 ug/100 g/6 hr). After 24 hours of PTH infusion (total PTH delivery of 4ug/100 g), the mice were sacrificed and measurements were made of serum calcium with the Sigma Diagnostics Calcium Kit (Sigma-Aldrich) and RANK mRNA expression in proximal tibia (as described in other examples herein). The results are shown in Table 12 are normalized to PTH treatment alone and are the average of four mice per group.

Data set [2] in a line: Serum calcium concentration in mice treated with RANK antisense oligonucleotide, no PTH: dose response and delivery method (Table 11). Format: in vivo, mouse. The protocol: In accordance with the present invention, antisense inhibition of the RANKL receptor, RANK, was evaluated in the short-term model of bone resorption. Serum calcium concentration was measured in mice treated with RANK antisense oligonucleotides at different doses, delivered by subcutaneous mini-pumps or subcutaneous injection.
ISIS 181071 ([…], SEQ ID NO: 356) is an antisense oligonucleotide targeted to mouse RANK. […] All cytidine residues are 5-methylcytidines.
Female Swiss-Webster mice (5-8 wks old), fed a low-calcium diet were treated with ISIS 181071 (SEQ ID NO: 356) for 15 days. The dose of oligonucleotide was either 30 mg/kg, 20 mg/kg, 10 mg/kg, 3 mg/kg, or 0.1 mg/kg administered by daily subcutaneous injections for the first five days, followed by mini-pump infusion for the remaining 10 days, or the dose was 10 mg/kg or 30 mg/kg administered daily by subcutaneous injection for the entire 15 day period. No PTH was administered to the mice that received oligonucleotide. A group of control mice were treated with either saline, PTH alone (1 ug/100 g/6 hr) or calcitonin (400 ng) plus PTH (1 ug/100 g/6 hr). After […] (total PTH delivery of 3 ug/100 g), blood samples were taken from the tail of the mice and the serum calcium concentration was measured with the Sigma Diagnostics Calcium Kit (Sigma-Aldrich). […] Thus, increase in serum calcium concentration is due to the PTH treatment rather than the oligonucleotide treatment.

Data set [3] is described as follows: Serum calcium concentration after PTH infusion in mice treated with RANK antisense oligonucleotide: dosing schedule study (Table 14). Format: in vivo, mouse. As to the method:
In accordance with the present invention, various antisense oligonucleotide dosing schedules were tested for their ability to inhibit serum calcium concentration increase resulting from PTH infusion.
Female Swiss-Webster mice (5-8 wks old) were fed a low-calcium diet. The mice were dosed with the same total amount of ISIS 181071 (SEQ ID NO: 356) (450 mg/kg), however the frequency of the dosage was varied. The first group received daily injections for […]. The second group received daily injections of 30 mg/kg/day for 5 days; the remaining 300 mg/kg was divided into 12 injections over 24 days and were administered every other day. The third group received daily injections of 30 mg/kg/day for 5 days; the remaining 300 mg/kg was divided into 8 injections over 24 days and were administered every third day. The fourth group received daily injections of 30 mg/kg/day for 5 days; the remaining 300 mg/kg was divided into 6 injections over 24 days and were administered every fourth day. Each group contained eight mice. Treatment with oligonucleotides was followed with infusion of PTH by subcutaneously implanted mini-pumps at a dose of 1 ug/100 g/6 hr. A control group received saline or PTH alone (1 ug/100 g/6 hr). After 24 hours of PTH infusion (total PTH delivery of 4 ug/100 g), the mice were sacrificed and the serum calcium concentration was measured with the Sigma Diagnostics Calcium Kit (Sigma-Aldrich). The data are shown in Table 14 and are the average of eight mice per group.

Data set [4] can be described thus: Serum calcium concentration after RANK antisense oligonucleotide treatment and PTH infusion: dose response and delivery method (Table 12). Format: in vivo, mouse. As to the method:
as §1, §2

For data set [5], the system named is RANK mRNA. In words: RANK mRNA expression in mouse proximal tibia after antisense oligonucleotide treatment and PTH infusion: time course (Table 13). Conditions: for RANK mRNA % inhibition (normalized to PTH) Proximal Tibia: then 24 h PTH. The format is in vivo. The protocol:
In accordance with the present invention, ISIS 181071 was administered to mice for different time periods to evaluate its ability to inhibit RANK expression and PTH-induced serum calcium concentration increase as a function of oligonucleotide treatment time.
Female Swiss-Webster mice (5-8 wks old) were fed a low-calcium diet and received daily subcutaneous injections of 30 mg/kg of ISIS 181071 (SEQ ID NO: 356) for 2, 3, 5, 7, 10, 14, or 21 days. At the end of the oligonucleotide treatment period, mice were infused with PTH by subcutaneously implanted mini-pumps at a dose of 1 ug/100 g/6 hr. A group of control mice were dosed with either saline, PTH alone (1 ug/100 g/6 hr) or calcitonin (400 ug) plus PTH (1 ug/100 g/6 hr). Following 24 hours of PTH infusion (total PTH delivery of 4ug/100 g), the mice were sacrificed and measurements were made of serum calcium with the Sigma Diagnostics Calcium Kit (Sigma-Aldrich) and RANK mRNA expression in the proximal tibia (as described in other examples herein). Percent RANK mRNA inhibition is normalized to PTH alone treatment.

Two molecules from patent publication US20050060764A1, “Mouse model for bone metabolism” (priority 2003, published 2005) can be followed below.

Strand notation (5' to 3'): a small letter for the sugar, then the base; units joined by * are phosphorothioate-linked, units joined directly phosphodiester-linked; [ ] holds rarer units or linkages, { } end groups; capitals alone tell only the bases. e = 2'-O-(2-methoxyethyl) (MOE); [5mC] = 5-methylcytosine; d = 2'-deoxy (DNA)

On to “TCCTCGAGAGGTCTCCTTGC (antisense eT*e[5mC]*e[5mC]*eT*e[5mC]*dG*dA*dG*dA*dG*dG*dT*d[5mC]*dT*d[5mC]*e[5mC]*eT*eT*eG*e[5mC]) [ISIS 181071, 2′-MOE gapmer antisense oligonucleotide targeted to mouse RANK]”, for which the “RANK mRNA % inhibition (normalized to PTH)” value in the data set on RANK mRNA [1] (0.1 mg/kg, injection 5 days then infusion 13 days) is on record as 19%; in the data set on RANK mRNA [1] (3 mg/kg, injection 5 days then infusion 13 days), 5%; in the data set on RANK mRNA [1] (10 mg/kg daily subcutaneous injection 18 days) it was 29%; with RANK mRNA [1] (10 mg/kg, injection 5 days then infusion 13 days) it was 23%; in the data set with RANK mRNA [1] (20 mg/kg, injection 5 days then infusion 13 days) it was 33%; in the data set with RANK mRNA [1] (30 mg/kg daily subcutaneous injection 18 days), 30%. For the same molecule, the “RANK mRNA % inhibition (normalized to PTH)” value in the data set with RANK mRNA [1] (30 mg/kg, injection 5 days then infusion 13 days) amounted to 32%. Moreover, the Serum calcium concentration in data set [2] (0.1 mg/kg, injection 5 days then mini-pump infusion 10 days, no PTH) came out at 9 mg/dL; in data set [2] (3 mg/kg, injection 5 days then mini-pump infusion 10 days, no PTH), 9 mg/dL; in data set [2] (10 mg/kg daily subcutaneous injection 15 days, no PTH) it was 9 mg/dL; in data set [2] (10 mg/kg, injection 5 days then mini-pump infusion 10 days, no PTH) it was 9 mg/dL; in data set [2] (20 mg/kg, injection 5 days then mini-pump infusion 10 days, no PTH), 9 mg/dL; in data set [2] (30 mg/kg daily subcutaneous injection 15 days, no PTH), 8 mg/dL. For the same molecule, the Serum calcium concentration is 9 mg/dL in data set [2] (30 mg/kg, injection 5 days then mini-pump infusion 10 days, no PTH); 18 mg/dL in data set [3] (total 450 mg/kg, 30 mg/kg/day 5 days then every fourth day (6 injections over 24 days), then 24 h PTH); 16 mg/dL in data set [3] (total 450 mg/kg, 30 mg/kg/day 5 days then every other day (12 injections over 24 days), then 24 h PTH); 17 mg/dL in data set [3] (total 450 mg/kg, 30 mg/kg/day 5 days then every third day (8 injections over 24 days), then 24 h PTH); 16 mg/dL in data set [3] (total 450 mg/kg, daily injections for 2 weeks, then 24 h PTH). Also, the “rise in serum calcium concentration in response to PTH infusion” value in data set [3] (mice, total 450 mg/kg, various dosing schedules, 24 hours PTH infusion) is reported as “can similarly prevent the rise in serum calcium concentration”. In addition, the serum calcium is 21 mg/dL in data set [4] (0.1 mg/kg, injection 5 days then infusion 13 days, then 24 h PTH); 20 mg/dL in data set [4] (3 mg/kg, injection 5 days then infusion 13 days, then 24 h PTH); 18 mg/dL in data set [4] (10 mg/kg daily subcutaneous injection 18 days, then 24 h PTH); 18 mg/dL in data set [4] (10 mg/kg, injection 5 days then infusion 13 days, then 24 h PTH); 18 mg/dL in data set [4] (20 mg/kg, injection 5 days then infusion 13 days, then 24 h PTH); 14 mg/dL in data set [4] (30 mg/kg daily subcutaneous injection 18 days, then 24 h PTH). Besides, the serum calcium in data set [4] (30 mg/kg, injection 5 days then infusion 13 days, then 24 h PTH) stood at 17 mg/dL. Besides, the “RANK mRNA % inhibition (normalized to PTH) Proximal Tibia” value in the data set with RANK mRNA [5] (30 mg/kg daily sc for 2 days) was determined as 34%; in the data set with RANK mRNA [5] (30 mg/kg daily sc for 3 days), 14%; in the data set with RANK mRNA [5] (30 mg/kg daily sc for 5 days), 32%; in the data set with RANK mRNA [5] (30 mg/kg daily sc for 7 days) it was 61%; in the data set with RANK mRNA [5] (30 mg/kg daily sc for 10 days) it was 37%; in the data set on RANK mRNA [5] (30 mg/kg daily sc for 14 days), 53%. For the same molecule, the “RANK mRNA % inhibition (normalized to PTH) Proximal Tibia” value in the data set on RANK mRNA [5] (30 mg/kg daily sc for 21 days) amounted to 52%. Moreover, in the data set with RANK mRNA [5] (mice, 30 mg/kg daily s.c. for 2, 3, 5, 7, 10, 14, or 21 days, 24 hours PTH infusion), the “RANK mRNA expression in the proximal tibia” value is given as “inhibition of RANK mRNA in the proximal tibia”.

B1: parathyroid hormone (peptide, UniProt P01270 32-115, looked up)
Parathyroid hormone: SVSEIQLMHNLGKHLNSMERVEWLRKKLQDVHNFVALGAPLAPRDAGSQRPRKKEDNVLVESHEKSLGEADKADVNVLTKAKSQ
notes: parathyroid hormone infused to induce bone resorption in the mouse model
For the molecule B1, the Serum calcium concentration in data set [2] (control mice, no oligonucleotide, PTH 1 ug/100 g/6 hr, calcitonin 400 ng, after 16 hours) came out at 9 mg/dL; in data set [3] (control group, PTH alone 1 ug/100 g/6 hr, 24 h) it was 21 mg/dL. The serum calcium in data set [4] (control mice, no oligonucleotide, PTH 1 ug/100 g/6 hr 24 h, calcitonin 400 ng) was found to be 20 mg/dL.
